Read-outs that look alike come from different tables or passages of the source. Marks after values point to notes of the source that are not given here.
Assays:
[1] = system: human lymphocytes
[2] = system: mouse bone marrow; details: in vivo, po; cited from earlier work
[3] = in vitro; details: male, human, Cytotoxicity (%)
[4] = system: CHO-K1 cells; details: cited from earlier work
[5] = female, Han Wistar [Cr1 WI(Han)], rat, in vivo, po, 400 mg/kg
[6] = system: human lymphocytes; remark: listed apart in the source
[7] = system: mice; details: mouse, in vivo; cited from earlier work
[8] = system: Saccharomyces cerevisiae; details: cited from earlier work
[9] = system: CHO-K1 cells; details: Chinese hamster
[10] = system: C3H/10T1/2 Cl 8 mouse embryo fibroblasts; details: cited from earlier work
[11] = system: mice; details: formulated diet, doses equivalent to a maximum of 30mg/kg in mice; cited from earlier work
[12] = system: CHL cells; details: cited from earlier work
[13] = system: Bacillus subtilis; details: cited from earlier work
[14] = system: Drosophila melanogaster; details: in vivo; cited from earlier work
[15] = humans, 100mg once or twice a day for 3 days, original commercial oral GI formulation; cited from earlier work
[16] = format: in vivo; details: rat, plasma, po
[17] = system: bacteria (Ames test); details: cited from earlier work
[18] = system: bone marrow polychromatic erythrocytes (PCE); details: female, rat, in vivo; for % Micronucleated PCE / % PCE: Han Wistar [Crl:WI(Han)], po
[19] = system: rats; details: formulated diet, doses equivalent to a maximum of 20mg/kg in rats; cited from earlier work
[20] = Wistar rat, oral dose of 40mg/kg, microsuspension, after 4h; cited from earlier work

Structure (SMILES): COC(=O)Nc1nc2cc(C(=O)c3ccc(F)cc3)ccc2[nH]1 [Flubendazole, flubendazole]
- Mode of action of micronucleus induction (in words) [1]: acts as an aneugen
- % micronuclei with a centromere ([1]; 7.5 μg/ml): 80%
- % micronuclei without a centromere ([1]; 7.5 μg/ml): 20%
- % micronuclei with a centromere ([1]; 9.0 μg/ml): 88%
- % micronuclei without a centromere ([1]; 9.0 μg/ml): 12%
- % micronuclei with a centromere ([1]; 16 μg/ml): 83%
- % micronuclei without a centromere ([1]; 16 μg/ml): 17%
- % micronuclei with a centromere ([1]; 25 μg/ml): 86%
- % micronuclei without a centromere ([1]; 25 μg/ml): 14%
- %C− micronuclei ([1]; male, human): 30%
- Bone marrow micronucleus test result (in words) [2]: negative
- cytotoxicity ([3]; 0.050 µg/ml): 0%
- cytotoxicity ([3]; 0.075 µg/ml): 0%
- cytotoxicity ([3]; 0.100 µg/ml): 0%
- cytotoxicity ([3]; 0.250 µg/ml): 0%
- cytotoxicity ([3]; 0.5 µg/ml): 4%
- cytotoxicity ([3]; 0.500 µg/ml): 0%
- cytotoxicity ([3]; 1.0 µg/ml): 0%
- cytotoxicity ([3]; 1.00 µg/ml): 16%
- cytotoxicity ([3]; 2.0 µg/ml): 0%
- cytotoxicity ([3]; 3.0 µg/ml): 0%
- cytotoxicity ([3]; 6.0 µg/ml): 0%
- cytotoxicity ([3]; 6.5 µg/ml): 43%
- cytotoxicity ([3]; 7.5 µg/ml): 8%
- cytotoxicity ([3]; 9.0 µg/ml): 26%
- cytotoxicity ([3]; 10.0 µg/ml): 0%
- cytotoxicity ([3]; 12.0 µg/ml): 0%
- cytotoxicity ([3]; 14.0 µg/ml): 14%
- cytotoxicity ([3]; 16.0 µg/ml): 4%
- cytotoxicity ([3]; 19.0 µg/ml): 7%
- cytotoxicity ([3]; 25.0 µg/ml): 12%
- Td (threshold dose) [4]: 0.028 µg/mL
- Td–L–CI (lower confidence Td) [4]: 0.025 µg/mL
- Mean plasma concentration [5]: 610 ng/mL
- Mean MNBN cell frequency (%) ([6]; 0.050 µg/ml): 0.10%
- Mean MNBN cell frequency (%) ([6]; 0.075 µg/ml): 0.30%
- Mean MNBN cell frequency (%) ([6]; 0.100 µg/ml): 0.55%
- Mean MNBN cell frequency (%) ([6]; 0.250 µg/ml): 1.15* %
- Mean MNBN cell frequency (%) ([6]; 0.5 µg/ml): 1.75* %
- Mean MNBN cell frequency (%) ([6]; 0.500 µg/ml): 3.15* %
- Mean MNBN cell frequency (%) ([6]; 1.0 µg/ml): 3.38* %
- Mean MNBN cell frequency (%) ([6]; 1.00 µg/ml): 4.25* %
- Mean MNBN cell frequency (%) ([6]; 2.0 µg/ml): 0.05%
- Mean MNBN cell frequency (%) ([6]; 3.0 µg/ml): 5.15* %
- Mean MNBN cell frequency (%) ([6]; 6.0 µg/ml): 0.85* %
- Mean MNBN cell frequency (%) ([6]; 6.5 µg/ml): 10.10* %
- Fold increases in MN over concurrent vehicle control ([6]; 7.5 μg/ml): 7.2
- Mean MNBN cell frequency (%) ([6]; 7.5 μg/ml): 1.65* %
- Fold increases in MN over concurrent vehicle control ([6]; 9.0 μg/ml): 28.5
- Mean MNBN cell frequency (%) ([6]; 9.0 μg/ml): 6.55* %
- Mean MNBN cell frequency (%) ([6]; 10.0 µg/ml): 0.25%
- Mean MNBN cell frequency (%) ([6]; 12.0 µg/ml): 0.20%
- Mean MNBN cell frequency (%) ([6]; 14.0 µg/ml): 0.65* %
- Fold increases in MN over concurrent vehicle control ([6]; 16 μg/ml): 3.6
- Mean MNBN cell frequency (%) ([6]; 16.0 µg/ml): 0.90* %
- Mean MNBN cell frequency (%) ([6]; 19.0 µg/ml): 0.55* %
- Fold increases in MN over concurrent vehicle control ([6]; 25 μg/ml): 11.5
- Mean MNBN cell frequency (%) ([6]; 25.0 µg/ml): 2.88* %
- Lowest dose where a statistically significant increase in micronuclei was observed ([6]; male, human): 0.25 µg/mL
- Lowest non-significant doses (micronuclei) ([6]; male, human): 0.1 µg per ml
- Lowest tested concentration, statistically significant increases in micronuclei evident ([6]; male, human): 0.5 µg/mL
- Induction of dominant lethal mutations (in words) [7]: negative
- Mutation test result (in words) [8]: negative
- BMD10 [9]: 0.019 µg/mL
- BMDL10 [9]: 0.013 µg/mL
- Morphological transformation (in words) [10]: morphological transformation
- Carcinogenicity (in words) [11]: Neither showed evidence of carcinogenicity
- Polyploidy (in words) [12]: induce polyploidy
- Induction of DNA repair (in words) [13]: negative
- Mutation test result (in words) [14]: negative
- Plasma Cmax [15]: < 1 ng/mL
- AUC(0-t) ([16]; 65 mg/kg): 15100 ng·h/mL
- Cmax ([16]; 65 mg/kg): 910 ng/mL
- AUC(0-t) ([16]; 130 mg/kg): 16500 ng·h/mL
- Cmax ([16]; 130 mg/kg): 900 ng/mL
- AUC(0-t) ([16]; 402 mg/kg): 24900 ng·h/mL
- Cmax ([16]; 402 mg/kg): 1330 ng/mL
- Ames bacterial mutation test result (in words) [17]: negative
- Revised RfD ([18]; Han Wistar [Cr1 WI(Han)]): 140.62 mg/subject/day
- % Micronucleated PCE ([18]; 65 mg/kg): 1.35* %
- % PCE ([18]; 65 mg/kg): 31.74%
- % Micronucleated PCE ([18]; 130 mg/kg): 2.31* %
- % PCE ([18]; 130 mg/kg): 33.00%
- % Micronucleated PCE ([18]; 400 mg/kg): 1.94* %
- Carcinogenicity (in words) [19]: Neither showed evidence of carcinogenicity
- Plasma levels of flubendazole [20]: 81 ng/mL

— paper PMC4840262 (Mutagenesis, 2015)
